# Reference: patent US20050261189A1, “Methods of promoting cardiac cell proliferation” (Hydra Biosciences, Inc., priority 2004, published 2005)
# Assays:
# [1] = system: beta-catenin; assay: Nuclear beta-catenin assay in rat neonatal cardiomyocytes; type: cell-based; conditions: 16 hours, FIG. 23
# Source text: We have used a nuclear beta-catenin assay to readily identify Wnt-related polypeptides that promote Wnt signaling via the canonical Wnt signaling pathway in cardiac cells. Specifically, and by way of example, we conducted a nuclear beta-catenin assay in rat neonatal cardiomyocytes to identify Wnt-related polypeptides that promote Wnt signaling via the canonical Wnt signaling pathway in cardiomyocytes. Such an assay conducted in neonatal or adult cardiac cells including, but not limited to, cardiomyocytes can be used to identify candidate agents that are capable of promoting Wnt signaling via the canonical Wnt signaling pathway in cardiac cells.
# Briefly, neonatal cardiomyocytes were prepared and plated as outlined in detail above. Cells were washed two times with serum-free medium and were incubated in medium containing either a recombinant Wnt-related polypeptide, or some control factor. Cells were incubated for 16 hours, were fixed in 4% Formaldehye for 10 minuntes at room temperature, and were permeabilized with 0.2% Triton X-100 for 5 minutes. […] Although beta-catenin is not typically detectable by immunocytochemistry in the absence of active Wnt signaling, the nuclei were counterstained with 4′,6-diamidino-2-phenylindole (DAPI) to specifically confirm that the detected beta-catenin expression was localized to the nucleus. […]
# Neonatal cardiomyocytes were cultured under one of the following conditions: medium alone (negative control), 10 mM LiCl, 2% fetal calf serum (FCS), 10% fetal calf serum (FCS), 25 ng/ml recombinant mouse Wnt5A (Catalog# 645-WN/CF), 50 ng/ml recombinant mouse Wnt5A (Catalog# 645-WN/CF), 100 ng/ml recombinant mouse Wnt5A (Catalog# 645-WN/CF), 25 ng/ml recombinant mouse Wnt3A (Catalog # 1324-WN/CF), 50 ng/ml recombinant mouse Wnt3A (Catalog # 1324-WN/CF), or 100 ng/ml recombinant mouse Wnt3A (Catalog # 1324-WN/CF). Following culture under one of the foregoing conditions, cells were analyzed by immunocytochemistry for expression of beta-catenin protein, and nuclear localization was verified by counterstaining the cells with DAPI. […]
# [2] = system: neonatal rat cardiomyocytes; assay: Neonatal rat cardiomyocyte proliferation, DNA synthesis by BrdU incorporation; type: cell-based; conditions: for cardiomyocyte proliferation: 48 hours, FIG. 22
# Protocol: Neonatal rat cardiomyocytes were isolated from postnatal day 2 Wistar rat pups. Rat pups were anesthetized by hypothermia in ice water for 10 min and euthanized by decapitation. Hearts were isolated and placed in PBS-G (KCl 2 g/L; KH2PO4 2 g/L; NaCl 80 g/L; Na2HPO4.7H20 21.6 g/L; D-glucose 10 g/L) on ice. The atria were removed and ventricles were washed in PBS-G and cut into pieces smaller than 2 millimeters. PBS-G containing 119.6 units/ml collagenase type 2 and 0.2 mg/ml pancreatin was warmed to 37° C. Amounts of collagenase were adjusted for batch variations in units/mg activity. Ventricles were dissociated in collagenase/pancreatin solution for 15 minutes on a rotator at 37° C. Tissue was dispersed gently by pipetting and allowed to settle for 5 min at room temperature. Cell suspension from first dissociation was discarded and replaced with fresh collagenase/pancreatin solution, and incubated at 37° C. for 15 minutes on an orbital shaker. Tissue was again dispersed and allowed to settle. The cell supension was transferred to a new tube and incubated an additional 5 min at 37° C., and the digestion was stopped by addition of an equal volume of DMEM/20% NCS and stored on ice. Digestion of the ventricular tissue was repeated 3 additional times and supernatants were collected and stored on ice in equal volumes of DMEM/20% NCS.
# Cells from all the fractions were collected at 200 RCF for 6 min at room temperature. Cell pellets were resuspended in 2 ml ADS buffer (6.8 g/L NaCl, 0.4 g/L KCl, 1.0 g/L D-glucose, 1.5 g/L NaH2PO4, 4.75 g/L HEPES, 0.1 MgSO4.7H2O). One ml of cell suspension was applied to two Percoll gradients set up in the following manner. The top Percoll gradient (density 1.059 g/ml) was generated by mixing Percoll stock with ADS buffer in a 9:11 ratio, and the bottom Percoll gradient (density 1.082 g/ml) was made by mixing Percoll stock and ADS buffer in a 13:7 ratio. Four ml Top Percoll was added to a 15 ml conical tube, and three ml Bottom Percoll was laid below it by placing a pipet tip at the bottom of the tube, then carefully withdrawing it as the solution was delivered. The gradients were centrifuged at 3000 rpm for 30 consecutive minutes at room temperature. Cardiac non-myocytes were located above the top percoll buffer while cardiac myocytes were located at the interface of the top and bottom percoll layers. Blood and undissociated tissue were found at the bottom of the tube. Cardiac myocytes were collected after the top percoll was aspirated, and resuspended in DMEM/10% FBS, then centrifuged at 200 RCF for 6 min. Pelleted myocytes were resuspended in plating medium containing DMEM with 25 mM HEPES, 5% horse serum, 4 mM glutamine, penicillin and streptomycin. Four volumes of DMEM/10% FBS were added and the cell suspension was passed through a 40 uM cell strainer. Cells were pre-plated in 10 cm tissue culture plates for 1 hour at 37° C. Unattached cells were collected from the medium and centrifuged at 200 RCF for 6 min. Pelleted myocytes were resuspended in plating medium containing 10 uM AraC at a density of 100000 cells/ml and 200 ul/well were distributed into 96 well plates which had previously been coated with 0.1% gelatin/12.5 ug/ml fibronectin at 37° C. for more than 4 hours. Plated cells were grown for at least 48 hours at 37° C. prior to use in further experiments.
# Briefly, the experiments summarized in FIG. 15 and FIG. 16 were conducted as follows. Neonatal rat cardiomyocytes were prepared and cultured as outlined in example 1. […]
# [3] = system: neonatal rat cardiomyocytes; assay: Hypertrophic response: ANF and tropomyosin immunocytochemistry in neonatal rat cardiomyocytes; conditions: Wnt3A 150 ng/ml, phenylephrine as hypertrophic stimulus
# Protocol: Briefly, neonatal rat cardiomyocytes were treated with serum or phenylephrine (two agents known to induce hypertrophy), or were treated with 150 ng/ml recombinant Wnt3A. Following treatment, the cells were analyzed by immunocytochemistry for expression of atrial naturietic factor (ANF) (rabbit anti-ANF/Peninsula laboratories/Bachem) or expression of tropomyosin (CH1 antibody available from Developmental Hybridoma).
# [4] = system: unfractionated adult cardiac cells; assay: Viable cell count, unfractionated adult cardiac cells; type: cell-based, mouse; conditions: unfractionated (whole heart) preparations, 3-4 days culture; recombinant Wnt3A at 50 ng/ml; FIGS. 24, 25a
# Protocol: (§1) Whole hearts were obtained from adult mice (greater than 5 weeks of age). Cardiac tissue was minced and washed three times to remove blood. Cardiac cells were dissociated with pancreatin and collagenase for 15 minutes at 37° C. and washed. Following dissociation the unfractionated cells were either plated, or fractionated into a Sca1+ and Sca1− population prior to plating. These three cardiac cell populations (unfractionated cell preparation; Sca1+cell preparation; Sca1− cell preparation) were cultured in the presence of various Wnt-related compositions. Specifically, the cardiac cell preparations were cultured for 3-4 days in either L-cell conditioned medium alone; LWW60 conditioned medium; or culture medium containing purified Wnt3A protein. Following 3-4 days in culture, the cardiac cells were washed with PBS and trypsinized, and viable cells were counted.
# [5] = system: β-catenin; assay: β-catenin stabilization by immunocytochemistry in neonatal rat cardiomyocytes; type: cell-based; conditions: 48 hours in neonatal base medium; recombinant Wnt3A 167 ng/ml or 500 ng/ml, or serum; FIG. 19
# Protocol: Briefly, neonatal rat cardiomyocytes were treated with either serum or with recombinant Wnt3A (e.g., 167 ng/ml or 500 ng/ml) in neonatal base medium for 48 hours. The treated cells were fixed, permeablilized with 0.5% Triton-X-100 for 15 minutes, and blocked in 5% goat serum in PBS-T for one hour. Mouse anti-β-catenin antibody (BD-Pharmingen) diluted 1:250 were incubated on cells for one hour. Cells were washed 3 times in PBS-T and incubated one hour in Alexa 594 goat anti-mouse antibody (Molecular Probes) at a dilution of 1:200.
# [6] = system: Sca1+ cell preparation; assay: Viable cell count, Sca1+ adult cardiac cell preparation; type: cell-based, mouse; conditions: Sca1+ cell preparations, 3-4 days culture; recombinant Wnt3A at 50 ng/ml; FIG. 25a
# Protocol: as §1
# [7] = system: one or more non-cardiac cells types; conditions: cited from earlier work
# [8] = system: Wnt3A induced cardiomyocyte proliferation; assay: Wnt antagonists co-administered with Wnt3A-L-cell supernatant, cardiomyocyte proliferation; type: cell-based, rat; conditions: 100 ng/ml of the Wnt inhibitor; FIG. 18
# Protocol: To confirm that Wnt3A was responsible for the stimulation of cardiomyocyte proliferation observed in FIG. 17, we co-administered supernatant from Wnt3A expressing mouse L-cells and the Wnt antagonist dkk (recombinant dkk obtained from R&D Systems).
# Nevertheless, the inhibition of Wnt3A induced cardiomyocyte proliferation by dkk supports the conclusion that Wnt3A is the active cardiomyocyte proliferative factor in the conditioned medium.
# The experiments were conducted and analyzed as detailed above in examples 2 and 3.
# [9] = recombinant mouse Wnt protein 25 ng/ml-100 ng/ml
molecule,measurement,setting,value
"[Cl-].[Li+] [LiCl, lithium chloride, reference compound]",beta-catenin nuclear localization (percentage of cells with nuclear beta-catenin staining),"[1]; 10 mM LiCl, versus medium alone or 2% or 10% serum",promoted beta-catenin nuclear localization
same,cardiomyocyte proliferation,"[2]; LiCl 10 mM, 5 mM or 2.5 mM",promoted cardiomyocyte proliferation
CNC[C@H](O)c1cccc(O)c1 [phenylephrine],ANF expression increased,[3]; FIG. 20,increased
same,change in cardiomyocyte cell size and shape,[3]; FIG. 21,"vastly different cell shape, size, and morphology"
Wnt3A,beta-catenin nuclear localization (percentage of cells with nuclear beta-catenin staining),[1]; [9],promoted beta-catenin nuclear localization
same,number of viable cells,[4],also increased the number of viable cells
same,"stabilization of β-catenin (increased detection and nuclear localization), Wnt signaling",[5],resulted in stabilization of β-catenin
same,number of viable cells,[6],also increased the number of viable cells
same,Wnt signaling pathway shown in one or more non-cardiac cell types,[7],signal via the canonical pathway
same,cardiomyocyte proliferation level compared with serum,"[2]; higher doses of Wnt3A, FIG. 16",comparable to serum
same,cardiomyocyte proliferation,"[2]; recombinant Wnt3A 150, 50 or 17 ng/ml",promoted cardiomyocyte proliferation
same,"cardiomyocyte proliferation, dilution series","[2]; recombinant Wnt3A dilution series, FIG. 16",promoted cardiomyocyte proliferation in a dose dependent manner
same,"cardiomyocyte proliferation, as measured by incorporation of BrdU","[2]; recombinant mouse Wnt3A 0.06, 0.4, 2.3, 14, 83 and 500 ng/ml, FIG. 15","statistically significant, dose dependent increase in cardiomyocyte proliferation"
"FRP2: Wnt inhibitor, secreted frizzled-related protein class (protein, UniProt Q96HF1 25-295, looked up) Secreted frizzled-related …: LFLFGQPDFSYKRSNCKPIPANLQLCHGIEYQNMRLPNLLGHETMKEVLEQAGAWIPLVMKQCHPDTKKFLCSLFAPVCLDDLDETIQPCHSLCVQVKDRCAPVMSAFGFPWPDMLECDRFPQDNDLCIPLASSDHLLPATEEAPKVCEACKNKNDDDNDIMETLCKNDFALKIKVKEITYINRDTKIILETKSKTIYKLNGVSERDLKKSVLWLKDSLQCTCEEMNDINAPYLVMGQKQGGELVITSVKRWQKGQREFKRISRSIRKLQC",abolition of Wnt3A induced cardiomyocyte proliferation,[8],did not
"FRP3: Wnt inhibitor, secreted frizzled-related protein class (protein, UniProt Q92765 33-325, looked up) Secreted frizzled-related …: AACEPVRIPLCKSLPWNMTKMPNHLHHSTQANAILAIEQFEGLLGTHCSPDLLFFLCAMYAPICTIDFQHEPIKPCKSVCERARQGCEPILIKYRHSWPENLACEELPVYDRGVCISPEAIVTADGADFPMDSSNGNCRGASSERCKCKPIRATQKTYFRNNYNYVIRAKVKEIKTKCHDVTAVVEVKEILKSSLVNIPRDTVNLYTSSGCLCPPLNVNEEYIIMGYEDEERSRLLLVEGSIAEKWKDRLGKKVKRWDMKLRHLGLSKSDSSNSDSTQSQKSGRNSNPRQARN",abolition of Wnt3A induced cardiomyocyte proliferation,[8],did not
"Wnt5A: recombinant mouse Wnt5A (Catalog# 645-WN/CF) (protein, UniProt P22725 62-380, looked up) Protein Wnt-5a: IIGAQPLCSQLAGLSQGQKKLCHLYQDHMQYIGEGAKTGIKECQYQFRHRRWNCSTVDNTSVFGRVMQIGSRETAFTYAVSAAGVVNAMSRACREGELSTCGCSRAARPKDLPRDWLWGGCGDNIDYGYRFAKEFVDARERERIHAKGSYESARILMNLHNNEAGRRTVYNLADVACKCHGVSGSCSLKTCWLQLADFRKVGDALKEKYDSAAAMRLNSRGKLVQVNSRFNSPTTQDLVYIDPSPDYCVRNESTGSLGTQGRLCNKTSEGMDGCELMCCGRGYDQFKTVQTERCHCKFHWCCYVKCKKCTEIVDQFVCK",beta-catenin nuclear localization (percentage of cells with nuclear beta-catenin staining),[1]; [9],did not promote beta-catenin nuclear localization
same,Wnt signaling pathway shown in one or more non-cardiac cell types,[7],signal via the non-canonical signaling pathway
